This passage reports GI50 and TGI results from PubChem BioAssay (NCI).

Assay in all cases: NCI tumour cell line growth inhibition, 48 h
The subject of test [1] is MDA-N.
Test [2] has as its system KM20L2 colon.
The test system of test [3] is DMS 273 small cell lung.
The subject of test [4] is DLD-1 colon.
In test [5] the test system is M19-MEL melanoma.
Test [6] relates to XF 498 CNS.
Test [7] relates to HOP-18 NSCLC.
In test [8] the test system is RXF-631 renal.
Test [9] has as its system SNB-78 CNS.
In test [10] the test system is P388/ADR leukemia.
Test [11] deals with SN12K1 renal.

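Grown in 96-well plates, cells were treated for 48 hours with each compound at five concentrations. Insufficient inhibition: endpoint recorded as highest concentration tested. The concentration for 50% growth inhibition is given as GI50. TGI marks complete inhibition of growth.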

With `Cc1cc2c3c([n+](C)c4ccc(F)cc4c3c1)-c1cc(F)ccc1N2C`, in test [1], the GI50 is 14.3 µM and the TGI is greater than 100 µM.
As to `COC(=O)c1ccc(C(=O)OC)c2nc3cc(Cl)ccc3nc12`, the TGI in test [2], in [3], in test [4], in [5], in test [6] and in test [7] was greater than 100 µM in each case. The compound further gave a TGI in test [8] greater than 100 µM.
In the case of `CCOC(=O)/C(C#N)=C\Sc1ccccc1`, the TGI is 51.9 µM in [2]; 41.9 µM in test [3]; 45.5 µM in test [4]; 63.8 µM in [5]; greater than 100 µM in test [6]; greater than 100 µM in test [9]. Also, the figures for the TGI in [7] and in test [8] were greater than 100 µM and 53.2 µM, respectively.
Take `O=C1C(Cl)=C(Cl)C(=O)N1c1cccc(C(F)(F)F)c1`: the TGI in test [2], in test [3], in [4], in [5], in test [6] and in [9] was greater than 100 µM in each case. For the same compound, the TGI in test [7] and in test [8] was greater than 100 µM each time.
Take `CCCS(=O)c1nc(COC(=O)NC)c(COC(=O)NC)n1C` (stereo not drawn): the TGI in test [2], in [3], in test [4], in test [5], in test [6] and in test [10] was greater than 100 µM in each case. Besides, the TGI in test [11], in [9], in test [7] and in test [8] was greater than 100 µM each time.
For the compound `O=C(O)/C(Cl)=C(Cl)/C=N/NC(=O)c1cc2ccccc2cc1O`, the TGI in [2] was 87.2 µM; in test [3] it was 45.2 µM; in test [4] it was greater than 100 µM; in test [5] it was 75.4 µM; in [6] it was greater than 100 µM; in [9], greater than 100 µM. For the same compound, the figures for the TGI in test [7] and in test [8] were 80.5 µM and greater than 100 µM, respectively.
As for `NC(Cc1cccnn1)C(=O)O` (stereo not drawn), the TGI in [1] is greater than 100 µM.
In test [1], `Oc1ccc(Cl)cc1Sc1cc(Cl)ccc1O` had a TGI of 26.1 µM.
In the case of `C[C@]12CC(C=O)C(=O)C(O)=C1CC[C@@H]1C2CC[C@@]2(C)C1CC[C@]2(C)O` (stereo partly drawn), the TGI was 52.9 µM in test [2]; 46.8 µM in [3]; 34.5 µM in test [4]; 44.8 µM in test [5]; 33.4 µM in test [6]; 35.8 µM in test [9]. Moreover, in test [8], the TGI came out at 72.7 µM.
As for `NC(=O)C(=O)C1C(=O)N(c2ccccc2)N=C1N` (stereo not drawn), the TGI in test [2], in test [3], in [4], in test [6] and in test [9] was greater than 100 µM throughout.
For `CC(=O)[CH-]C(=O)c1ccccc1.CC(=O)[CH-]C(=O)c1ccccc1.CC[C@H](/C=C/C(C)[C@H]1CCC2[C@@H]3CC=C4C[C@@H]([O-])CC[C@]4(C)C3CC[C@@]21C)C(C)C.CC[C@H](/C=C/C(C)[C@H]1CCC2[C@@H]3CC=C4C[C@@H]([O-])CC[C@]4(C)C3CC[C@@]21C)C(C)C.Cl.[Ti+4]` (stereo partly drawn), the GI50 in [2], in [3], in test [4], in [5] and in test [7] was greater than 25 µM each time. Also, the TGI in test [2], in [3], in test [4], in [5] and in [7] was greater than 25 µM throughout.
In the case of `N#CC(C(=N/O)/C(=N\O)C(C#N)c1ccccc1)c1ccccc1` (stereo not drawn), the TGI in test [2], in [4], in test [5], in [6], in test [9] and in test [7] was greater than 100 µM throughout. Also, the TGI in test [8] is greater than 100 µM.
On to `[Cl][Hg][c]1ccc2ccccc2c1`, for which, in test [1], the GI50 was 1.5 µM and the TGI was found to be 2.88 µM.
In [1], `Cn1c2c(c3ccccc3c1=O)C(=O)c1ccccc1-2` gave a TGI greater than 100 µM.
As to `CCCCCN(CCCCC)C(=O)[C@H](CCC(=O)O)NC(=O)c1cc2ccccc2[nH]1`, the TGI in test [2], in [3], in [4], in [5], in test [6] and in [9] was greater than 100 µM in each case.
Turning to `CC(=O)c1ccc2c3c1[C@H]1O[C@H]1c1cccc(c1-3)[C@@H]1O[C@H]21`, the TGI in test [1] stood at 5.86 µM.
In turn, `CSc1ccc(NC(=O)Nc2cc(C)ccn2)cc1` displayed a TGI in [1] greater than 100 µM.
For the compound `COc1cccc2c(SCC(=O)Nc3ccccc3-c3ccccc3NC(=O)CSc3c4ccccc4nc4c(OC)cccc34)c3ccccc3nc12`, the TGI in test [2], in [3], in test [4], in test [6], in test [9] and in [8] was greater than 100 µM throughout.
Compound `C=C(C)C1CCC2=CC(CC3(C)OC3C3=CC(C(=O)OC)=C(C1)O3)OC2=O` (stereo not drawn) displayed a TGI in test [1] greater than 100 µM.
Turning to `COc1cc2c3cc1Oc1c(OC)c(OC)cc4c1[C@@H](Cc1ccc(O)c(c1)Oc1ccc(cc1)C[C@@H]3N(C)CC2)N(C)CC4`, the TGI in [2] was 21.1 µM; in test [3] it was 34 µM; in test [4], 56.3 µM; in test [5], 26.2 µM; in [6] it was 23.8 µM; in test [9], greater than 100 µM.
`COc1ccc(/C=C\c2cc(OC)c(OC)c(OC)c2)cc1OC(=O)CC(N)C(=O)O` (stereo not drawn): the TGI in test [2] was 21.2 µM; in test [3] it was 0.00462 µM; in [4], greater than 100 µM; in test [5], greater than 100 µM; in test [6] it was 0.00792 µM; in [9] it was greater than 100 µM. Besides, the TGI in test [1] is 0.000474 µM; in [7] it was greater than 100 µM. Also, the GI50 in test [7] is greater than 100 µM.
With `C[C@]12Cc3conc3C(O)=C1CC[C@@H]1C2CC[C@@]2(C)C1CC[C@]2(C)O` (stereo partly drawn), the TGI in [2] is 42.7 µM; in test [3] it was 26.3 µM; in test [4] it was 57.5 µM; in test [5] it was 41.9 µM; in [6], 47.2 µM; in test [9], 63.4 µM. The compound further had a TGI in [8] greater than 100 µM.
`O=[N+]([O-])c1cccc(S(=O)(=O)N/N=C/c2cc(I)cc([N+](=O)[O-])c2O)c1`: the TGI in test [2] was greater than 100 µM; in [3], 52.9 µM; in [4] it was greater than 100 µM; in test [5], greater than 100 µM; in test [9], 66.4 µM; in test [7] it was 78.6 µM.
On to `CNCC(=O)NC(CO)C(=O)NC(CO)C(=O)NC1C(C(N)=O)OC(n2ccc(N)nc2=O)C(O)C1O` (stereo not drawn), for which, in test [1], the GI50 is 12.4 µg/mL and the TGI is greater than 50 µg/mL.
Turning to `COc1ccc(NC(=O)c2oc3cc(O)ccc3c(=O)c2C)c([N+](=O)[O-])c1`, the TGI in test [2], in [3], in test [4], in test [5], in test [6] and in test [9] was greater than 100 µM each time. Also, the TGI in test [7] is greater than 100 µM.
In the case of `Nn1c(-c2cccc(Cl)c2)nc2ccccc2c1=O`, the TGI in [2], in [3], in [4], in test [6], in test [9] and in test [7] was greater than 100 µM in each case. This compound also had a TGI in test [8] greater than 100 µM.
With `CCCCCCCCC(C)CCCCCCCCC(=O)OCC(COP(=O)([O-])OCC[N+](C)(C)C)OC(=O)CCCCCCCCC(C)CCCCCCCC` (stereo not drawn), the TGI in [2], in [3], in [4], in [5], in test [9] and in [7] was greater than 100 µM in each case. The TGI in test [8] is greater than 100 µM.
On to `CC(C)N1C(C)[C@@H](c2ccccc2)O[P@@]1(=O)CC1=CCCCC1` (stereo partly drawn), for which the TGI in test [2], in test [4], in test [5], in [6] and in [7] was greater than 100 µM each time.
In turn, `O=C(NCCCl)Nc1ccccc1` had a TGI in test [1] greater than 100 µM.
The same measure, in the same setting: for `O=C1CC(Cc2n[nH]c3c2CCCC3)CC(=O)N1` the value was greater than 100 µM.
As to `CCC[CH2][Sn]([CH2]CCC)([O]C(=O)c1cc(F)ccc1F)[O]C(=O)c1cc(F)ccc1F`, the GI50 in test [2] is 1.76 µM; in [3] it was 1.2 µM; in [4] it was 0.915 µM; in [5], 0.537 µM; in test [6], 1.8 µM; in test [9] it was 0.419 µM. Moreover, the GI50 in test [7] is 2.21 µM; in test [8], 0.154 µM. The TGI in [2] worked out at 3.37 µM; in [3], 2.45 µM; in test [4], 2.16 µM; in test [5] it was 1.8 µM; in [6], 3.21 µM; in test [9] it was 1.86 µM. For the same compound, the TGI in test [7] is 3.67 µM; in test [8] it was 0.363 µM.
Turning to `Cc1ccc(NC(=S)C#N)c(C)c1`, in test [1], the TGI was greater than 100 µM.
Take `O=C(COC(=O)c1cccc2c(=O)c3ccccc3[nH]c12)Nc1ccc(Cl)cc1`: the TGI in test [2] is greater than 100 µM; in test [4], greater than 100 µM; in test [5], greater than 100 µM; in [6], 97.3 µM; in test [9] it was greater than 100 µM; in [7], greater than 100 µM.
Consider `O=NN1CCN=C1c1ccc([N+](=O)[O-])cc1`, for which the TGI in test [2], in test [3], in [4], in test [5], in test [6] and in test [9] was greater than 100 µM in each case.
`O=C(NNc1ccccc1)c1ccc(Cl)c(Cl)c1` returned a TGI in [1] greater than 100 µM.
With `Cc1ccc(C2[C@H]3C(=O)N(c4ccc(Cc5ccc(N6C(=O)[C@@H]7ON(c8ccccc8)C(c8ccc(C)cc8)[C@@H]7C6=O)cc5)cc4)C(=O)[C@H]3ON2c2ccccc2)cc1` (stereo partly drawn), the TGI in [2], in [3], in test [4], in test [5], in test [6] and in test [7] was greater than 100 µM throughout.
Consider `CN(CCCN1C(=O)c2cccc3cc([N+](=O)[O-])cc(c23)C1=O)CCN(C)CCCN1C(=O)c2cccc3cc([N+](=O)[O-])cc(c23)C1=O`, for which the TGI in test [2], in [3], in test [5], in test [6], in test [9] and in [7] was greater than 39.3 µM throughout. Moreover, the TGI in test [8] is greater than 39.3 µM.
Regarding `CN(C)C(=S)/N=c1\ssc(=S)n1Cc1ccco1`, the TGI in [2] is greater than 100 µM; in [3], greater than 42.2 µM; in [4], greater than 100 µM; in test [5] it was greater than 100 µM; in [6], 60.1 µM; in test [9] it was greater than 100 µM. For the same compound, the TGI in test [7] and in test [8] was greater than 100 µM throughout.
With `O=C1NC2C3CC(OCc4ccccc4)(OCc4ccccc4)C2OC3O1` (stereo not drawn), the TGI in test [3], in test [4], in [5], in test [6] and in test [7] was greater than 50 µM each time.
Take `Cc1cc(N(CCC#N)CCC#N)ccc1/C=C(\NC(=O)/C=C/c1ccccc1)C(=O)Nc1ccc(Cl)cc1`: the TGI in test [2] is greater than 79.6 µM; in test [3], greater than 100 µM; in [4], greater than 100 µM; in test [5], greater than 38.1 µM; in [6], greater than 100 µM; in test [9] it was greater than 100 µM. The TGI in [1], in test [7] and in test [8] was greater than 100 µM throughout.
For `Cc1ccc(C)c(NC(=O)C(=O)C2C(=O)N(c3ccccc3)N=C2N)c1` (stereo not drawn), the TGI in [2], in [3], in [4], in [5], in test [6] and in test [9] was greater than 100 µM in each case. Further, the TGI in test [7] and in test [8] was greater than 100 µM each time.
